# Like-named read-outs stand apart in the source and are kept apart here.
# What was measured:
# [1] = test system: C57BL/6 mice; test: in vivo toxicity in C57BL/6 mice, 7 days observation
# Method: C57BL/6 mice were injected with either 500 ug/kg or 1500 ug/kg 26-epi-bryostatin 1 or 150 ug/kg or 500 ug/kg bryostatin 1.
# [2] = test system: B16/F10 melanoma cell line; test: [3H]thymidine incorporation assay in melanoma cells (one day treatment); format: cell-based; conditions: for IC50: read-out: ED50, inhibition of [3H]thymidine incorporation
# Description: FIG. 2A depicts the percentage of incorporation of [^3 H]thymidine relative to a control sample (y-axis) plotted as a function of the concentration (nM) of bryostatin 1 (squares) or 26-epibryostatin 1 (circles)
# (§1) The unmodified and C-26 modified bryostatins were used in [^3 H]thymidine incorporation and cell proliferation assays. The phorbol ester PMA, a ligand for protein kinase C was also used in this example to provide a separate control sample. The selection of PMA as a control sample is particularly appealing since bryostatins antagonize a subset of the actions of PMA. [^3 H]Thymidine incorporation is a measure of DNA synthesis, which is often used as a marker of cell replication. Chronic cell growth assays are an alternative measure of cell growth, usually performed over longer periods of time.
# (§2) For [^3 H]-thymidine incorporation assays, melanoma cells growing in log phase at a density of 40-50% confluency were treated for one day with the indicated compound.
# [3] = test system: [3H]thymidine incorporation; test: [3H]thymidine incorporation with or without bisindolyl-maleimide I; format: cell-based; conditions: for [3H]thymidine incorporation expressed as percent of control: bryostatin 1 or epi-bryostatin 1 3 uM
# Method: as §2
# (§3) Bisindolyl-maleimide I was used to inhibit both PMA and bryostatin 1 induced protein kinase C activity and bryostatin 1 induced inhibition of [^3 H]thymidine incorporation.
# The effect of bisindolyl-maleimide I cotreatment on induction of protein kinase C activity and [^3 H]thymidine incorporation in response to PMA or bryostatin 1.
# [4] = test system: protein kinase C; conditions: cited from earlier work
# [5] = test system: B16/F10 melanoma cell line; test: cells; format: cell-based; conditions: for cytostatic / cytotoxic effect: 3 uM
# Method: The effect of bryostatin 1 and phorbol 12-myristate 13-acetate (PMA) on the proliferation of the B16/F10 melanoma cell line was first determined. Bryostatin 1 inhibited [^3 H]thymidine incorporation with an ED50 of 600±80 nM (n=3) and with a maximum inhibition of 60% (FIG. 2A). […] The effect on cell growth of chronic treatment with bryostatin 1 or PMA was also determined. […] In contrast to bryostatin 1, PMA increased the cell growth by 75±10% (n=3) at a dose of 10 nM; the dose response curve was biphasic, with smaller effects at higher and lower applied doses (FIG. 2B).
# During the 4-day treatment schedule, the number of cells in the control group increased 80 to 100-fold.
# [6] = test system: B16-F10 melanoma cell line; test: chronic cell growth (cell proliferation) assay, 4 days; format: cell-based; conditions: for IC50: read-out: ED50, dose required to reduce cell growth by 50%, 5760 min
# Description: FIG. 2B depicts the results of a chronic cell growth assay wherein the number of cells expressed as a percentage of a control sample (y-axis) are plotted as a function of the concentration (nM) of bryostatin 1 (squares), 26-epibryostatin 1 (circles), or PMA (triangles).
# as §1
# For the cell proliferation assays, the B16-F10 melanoma cell line with high pulmonary metastatic potency (from the laboratory of Dr. I. J. Fidler, Frederick Cancer Research and Development Center, Frederick, Md.) were plated at a density of 10^3 cells/well in Costar 12-well tissue culture plates. The cells were then treated with different concentrations of bryostatin 1, 26-epi-bryostatin 1, or PMA in 0.1% DMSO 1 and 3 days after plating. Total cell number was determined 4 days after plating.
# [7] = test system: protein kinase C; conditions: cited from earlier work; remark: listed apart in the source
# [8] = test system: protein kinase C; format: cell-based; conditions: for fold increase of protein kinase C activity: PMA 10 nM, bryostatin 1 3 uM, 10 min
# Method: as §3
# Protein kinase C activity was assayed in cell lysates by measuring the incorporation of ^32 P from [γ-^32 P]ATP into acetylated myelin basic protein peptide (4-14) (Ac-MBP(4-14)) by methods known in the art (Nakadate et al., Biochem. Pharmacol., 37, 1541-1545 (1988)). The cells were treated at 60-75% confluency with bryostatin 1, 26-epi-bryostatin 1 and/or bisindolyl-maleimide I for 10 min. The cells were lysed by sonication in 20 mM Tris-HCl, pH 7.4, containing 5 mM EGTA and 20 uM leupeptin. 5 ul of cell lysate was added to 15 ul kinase buffer (20 mM HEPES, pH 7.5, 10 mM MgCl2, 0.5 mM CaCl2, 1 mM 4-(2-aminoethyl)benzenesulfonyl fluoride, 20 uM leupeptin, and 10 ug/ml aprotinin) containing 50 uM substrate, and 2 uCi [γ-^32 P]ATP at a concentration 50 uM ATP. The kinase reaction was incubated for 10 minutes at 30 ° C. The incorporated radioactivity was measured with a Pharmacia Biotech 1218 liquid scintillation counter.
# [9] = test system: lymphoma, renal cancer, melanoma, leukemia, and ovarian cancer; conditions: cited from earlier work
# [10] = test system: mice; conditions: cited from earlier work
# [11] = test system: humans; conditions: three infusions of 2 μg/kg; cited from earlier work
# [12] = with BIM-I (1 uM), PMA 10 nM, 1440 min
# [13] = without BIM-I, PMA 10 nM, 1440 min
smiles,measurement,setting,value
CCCC=CC=CC(=O)OC1C(=CC(=O)OC)CC2CC(C(C)O)OC(=O)CC(O)CC3CC(OC(C)=O)C(C)(C)C(O)(CC4CC(=CC(=O)OC)CC(C=CC(C)(C)C1(O)O2)O4)O3 (stereo not drawn) [26-epi-bryostatin 1],toxicity,[1]; 500 ug/kg injected,only relatively minor toxic effects
same,toxicity,[1]; 1500 ug/kg injected,only relatively minor toxic effects
same,therapeutic index relative to bryostatin 1,[1]; compared with bryostatin 1,higher therapeutic index
same,toxicity relative to bryostatin 1,[1]; compared with bryostatin 1,significantly less toxic than bryostatin 1
same,maximum inhibition of [3H]thymidine incorporation,"[2]; B16/F10 melanoma, highest dose tested 3 uM",80±5%
same,"inhibitory potency relative to bryostatin 1, [3H]thymidine incorporation",[2]; compared with bryostatin 1,inhibitory potency similar to that of bryostatin 1
same,"maximum extent of inhibition relative to bryostatin 1, [3H]thymidine incorporation",[2]; compared with bryostatin 1,greater than for bryostatin 1
same,IC50,"[2]; B16/F10 melanoma, one day, 1440 min",0.6 ± 0.12 µM
same,[3H]thymidine incorporation expressed as percent of control,[3]; [12],20 ± 5% of control
same,[3H]thymidine incorporation expressed as percent of control,[3]; [13],21 ± 3% of control
same,affinity for protein kinase C of 26-epi-bryostatin 1,[4]; compared with bryostatin 1,significantly reduced affinity
same,cytostatic / cytotoxic effect,[5],powerful cytostatic agent with no cytotoxic effect
same,cell death (trypan blue exclusion),"[5]; after treatment in the cell growth assay, 5760 min, 3 µM",less than 1%
same,growth arrest,"[6]; 3 uM, 4 days",almost complete growth arrest
same,"inhibition of cell growth (maximal, highest dose tested)","[6]; 4 days, 3 uM",97±3%
same,"maximum extent of inhibition relative to bryostatin 1, cell growth",[6]; compared with bryostatin 1,greater than for bryostatin 1
same,"reduction in potency relative to bryostatin 1, chronic cell growth assay",[6]; compared with bryostatin 1,3 fold
same,IC50,"[6]; chronic treatment, 4 days",0.14 ± 0.03 µM
"CN(C)CCCn1cc(C2=C(c3c[nH]c4ccccc34)C(=O)NC2=O)c2ccccc21 [BIM-I, bisindolyl-maleimide I]",protein kinase C inhibition,[7],powerful and specific protein kinase C inhibitor
same,effect on PMA-induced increase in [3H]thymidine incorporation,"[3]; BIM-I 1 uM, PMA 10 nM",inhibited the modest PMA-induced increase
same,effect on bryostatin induced decrease in thymidine incorporation,"[3]; BIM-I 1 uM, bryostatin 1 3 uM",slightly enhanced
same,effect on inhibition of thymidine incorporation by bryostatin 1,"[3]; BIM-I 1 uM, bryostatin 1 3 uM",did not block
same,[3H]thymidine incorporation expressed as percent of control,"[3]; with BIM-I (1 uM), PMA 10 nM",91 ± 2% of control
same,inhibition of PMA or bryostatin 1 induced protein kinase C enzymatic activity,"[8]; BIM-I 1 uM, PMA 10 nM or bryostatin 1 3 uM",completely inhibited
CCC/C=C/C=C/C(=O)O[C@H]1/C(=C/C(=O)OC)C[C@H]2C[C@H]([C@@H](C)OC(C)=O)OC(=O)C[C@H](O)C[C@@H]3C[C@H](OC(C)=O)C(C)(C)[C@](O)(C[C@@H]4C/C(=C/C(=O)OC)C[C@H](/C=C/C(C)(C)[C@]1(O)O2)O4)O3 [C-26 acetate ester of bryostatin],binding activity / affinity for protein kinase C,[4],decreased binding activity
CCCC(=O)O[C@H]1/C(=C/C(=O)OC)C[C@H]2C[C@H]([C@H](C)O)OC(=O)C[C@H](O)C[C@@H]3C[C@H](OC(=O)C(C)(C)C)C(C)(C)[C@](O)(C[C@@H]4C/C(=C/C(=O)OC)C[C@H](/C=C/C(C)(C)[C@]1(O)O2)O4)O3 [C-26 epimer of bryostatin 4],binding activity / affinity for protein kinase C,[4],decreased binding activity
"CCCCCCCCCCCCCC(=O)O[C@@H]1[C@@H](C)[C@@]2(O)[C@@H](C=C(CO)C[C@]3(O)C(=O)C(C)=C[C@@H]23)[C@@H]2C(C)(C)[C@]12OC(C)=O [PMA, phorbol 12-myristate 13-acetate]",activity at 0.01 µM,"[2]; Mus musculus, B16-F10, 24 h, 10 nM, read-out: [3H]thymidine incorporation (slight increase)",120 ± 20%
same,effect on [3H]thymidine incorporation,[2]; dose range between 0.1 nM to 3 uM,no significant effect
same,[3H]thymidine incorporation expressed as percent of control,"[3]; with BIM-I (1 uM), PMA 10 nM",98 ± 11% of control
same,[3H]thymidine incorporation expressed as percent of control,"[3]; without BIM-I, PMA 10 nM",120 ± 22% of control
same,fold increase of protein kinase C activity,[8]; with BIM-I (1 uM),1.08 ± 0.1 fold
same,fold increase of protein kinase C activity,[8]; without BIM-I,4.4 ± 0.1 fold
same,activation at 0.01 µM,"[6]; Mus musculus, B16-F10, 96 h, 10 nM, chronic treatment, read-out: increase in cell growth",75 ± 10%
same,dose response curve of cell growth,[6]; smaller effects at higher and lower applied doses than 10 nM,biphasic
CCCC=CC=CC(=O)OC1C(=CC(=O)OC)CC2CC(C(C)O)OC(=O)CC(O)CC3CC(OC(C)=O)C(C)(C)C(O)(CC4CC(=CC(=O)OC)CC(C=CC(C)(C)C1(O)O2)O4)O3 (centres unmarked) [bryostatin 1],toxicity,[1]; 150 ug/kg injected,only relatively minor toxic effects
same,"toxicity, lethality",[1]; 500 ug/kg bryostatin 1 injected,lethal for all animals tested by the third day after injection
same,antineoplastic effectiveness,[9],directly shown to be effective
same,inhibition at 3 µM,"[2]; Mus musculus, B16-F10, 3 h, read-out: maximum inhibition of [3H]thymidine incorporation, B16/F10 melanoma, highest dose tested 3 uM",60%
same,IC50,"[2]; Mus musculus, B16-F10, 24 h",0.6 ± 0.08 µM
same,inhibition of [3H]thymidine incorporation of bryostatin 1 plus bisindolyl-maleimide I relative to 26-epi-bryostatin 1 alone,[3]; combination with BIM-I,same level of inhibition
same,[3H]thymidine incorporation expressed as percent of control,[3]; [12],25 ± 5% of control
same,[3H]thymidine incorporation expressed as percent of control,[3]; [13],43 ± 2% of control
same,fold increase of protein kinase C activity,[8]; with BIM-I (1 uM),1.07 ± 0.04 fold
same,fold increase of protein kinase C activity,[8]; without BIM-I,3.02 ± 0.3 fold
same,cytostatic / cytotoxic effect,[5],arrested growth rather than killed cells
same,cytotoxicity at 3 µM,"[5]; Mus musculus, B16-F10, 96 h, after treatment in the cell growth assay, read-out: cell death (trypan blue exclusion)",< 1%
same,lethal dose,[10],greater than 200 μg/kg
same,side-effects,[11],significant side-effects including myalgia and hypotension
same,"inhibition of cell growth (maximal, highest dose tested)","[6]; 4 days, 3 uM",75±5%
same,IC50,"[6]; chronic treatment, 4 days",0.05 ± 0.015 µM
